Assay results reported in ChEMBL document CHEMBL1124377, “Potent and prolonged acting cyclic lactam analogues of alpha-melanotropin: design based on molecular dynamics” (J Med Chem, 1989).

How the values were obtained:
[1] = test system: Melanocyte-stimulating hormone receptor (Rana pipiens); assay: […] potency against Rana pipiens using frog skin bioassay; effect did not continue after the removal of the compound
[2] = test system: Melanocyte-stimulating hormone receptor (Anolis carolinensis); assay: […] potency against Anolis carolinensis using lizard skin bioassay; effect did not continue after the removal of the compound

Relative potency [1]: 1
Relative potency [2]: 20
SMILES: CCCC[C@H](NC(C)=O)C(=O)N[C@H]1CC(=O)NCCC[C@@H](C(N)=O)NC(=O)[C@H](Cc2c[nH]c3ccccc23)NC(=O)[C@H](CCCN=C(N)N)NC(=O)[C@@H](Cc2ccccc2)NC(=O)[C@H](Cc2cnc[nH]2)NC1=O
